Where a name gives a salt, the structure may show the parent alone. Read-outs that look alike come from different tables or passages of the source.
Legend:
[1] = test system: A/PuertoRico/8/1934 (H1N1) virus; experiment: microbe, parasite or virus in culture; assay type: cell-based, influenza A virus
U937 cells = conditions: 20 µM
in vitro = conditions: human, Relative Viability (%)
[2] = Influenza A virus, H1N1, U-937, 48 h; read-out: NA Inhibition (%)
[3] = Influenza A virus, H1N1, U-937, 48 h, read-out: NA Inhibition (%)

| Molecule | NA Inhibition (%) ([1]; 20 µM) | Relative Viability (%) (U937 cells) | inhibition at 20 µM [1, 2] | viability at 20 µM (in vitro) | inhibition at 20 µM [1, 3] |
| --- | --- | --- | --- | --- | --- |
| CN(C)CCOC(c1ccc(Cl)cc1)c1ccccn1.O=C(O)/C=C\C(=O)O (stereo not shown) [ArbinoxaMine Maleate] | 29.8% | 94.3% | – | – | – |
| COc1ccc(C[C@@H](C)NC[C@H](O)c2ccc(O)c(NC=O)c2)cc1.COc1ccc(C[C@@H](C)NC[C@H](O)c2ccc(O)c(NC=O)c2)cc1.O=C(O)/C=C/C(=O)O [Formoterol Hemifumarate] | -23.1% | 121.9% | – | – | – |
| Salbutamol Sulfate | 6.4% | 114.7% | – | – | – |
| Urapidil HCl | 5.3% | 103.3% | – | – | – |
| COc1cc2nc(N3CCN(C(=O)C4CCCO4)CC3)nc(N)c2cc1OC (stereo not shown) [Terazosin] | – | – | -47.2% | 87.8% | – |
| O=C(O[C@H]1C[N+]2(CCCOc3ccccc3)CCC1CC2)C(O)(c1cccs1)c1cccs1 [Aclidinium Bromide] | – | – | 13.8% | 194% | – |
| C[N+]1(C)CCC(=C(c2ccccc2)c2ccccc2)CC1 [Diphemanil Methylsulfate] | – | – | -0.6% | 98.2% | – |
| CN1CCN2c3ccccc3Cc3ccccc3C2C1 (stereo not shown) [Mianserin HCl] | – | – | 26.3% | 91.9% | – |
| O=C1c2c(O)cc(O)cc2O[C@H](c2cc(O)c(O)c(O)c2)[C@H]1O [Dihydromyricetin] | – | – | 9.3% | 95.3% | – |
| O=c1ccc2ccc(OCCCCN3CCN(c4cccc5sccc45)CC3)cc2[nH]1 [Brexpiprazole] | – | – | 54% | 97.2% | – |
| CCN1CCCC1CNC(=O)c1cc(S(=O)(=O)CC)c(N)cc1OC (stereo not shown) [Amisulpride] | – | – | 6.2% | 89.7% | – |
| COc1ccc(C[C@@H]2c3cc(OC)c(OC)cc3CC[N@+]2(C)CCC(=O)OCCCCCOC(=O)CC[N@@+]2(C)CCc3cc(OC)c(OC)cc3[C@H]2Cc2ccc(OC)c(OC)c2)cc1OC [Cisatracurium Besylate] | – | – | – | 106% | 27.9% |
| CN(C)C(=O)C(CCN1CCC(O)(c2ccc(Cl)cc2)CC1)(c1ccccc1)c1ccccc1 [Loperamide HCl] | – | – | – | 116% | 23.2% |
| CC(=O)OCC[N+](C)(C)C [Acetylcholine Chloride] | – | – | -5.4% | 104% | – |
| CN(C)C(=O)Oc1cccc([N+](C)(C)C)c1 [Neostigmine Bromide] | – | – | 2% | 114% | – |
| C[N+](C)(C)CCCCCC[N+](C)(C)C [Hexamethonium Bromide] | – | – | -10.2% | 104% | – |
| Cc1ccsc1C(=CCCN1CCC[C@@H](C(=O)O)C1)c1sccc1C [Tiagabine] | – | – | 14.2% | 95.7% | – |
| CC(C)(C)NC[C@H](O)COc1nsnc1N1CCOCC1 [Timolol Maleate] | – | – | – | 91.2% | 33.2% |
| CC(CCc1ccccc1)NCC(O)c1ccc(O)c(C(N)=O)c1 (stereo not shown) [Labetalol HCl] | – | – | – | 101% | -17.2% |
| CCCN[C@H]1CCc2nc(N)sc2C1 [Pramipexole dihydrochloride monohydrate] | 2.6 | – | – | 100% | – |
| CC(C)C(=O)Oc1ccc(CO)cc1[C@H](CCN(C(C)C)C(C)C)c1ccccc1 [Fesoterodine Fumarate] | – | – | -27.7% | 114% | – |
| O=C1c2cccc3c2[C@H](CCC3)CN1[C@@H]1CN2CCC1CC2 [Palonosetron HCl] | – | – | -5.5% | 102% | – |

| Molecule | NA Inhibition (%) ([1]; 20 µM) | Relative Viability (%) (U937 cells) | inhibition at 20 µM [1, 2] | viability at 20 µM (in vitro) | inhibition at 20 µM [1, 3] |
| --- | --- | --- | --- | --- | --- |
| CCCC(=O)Nc1ccc(OCC(O)CNC(C)C)c(C(C)=O)c1 (stereo not shown) [Acebutolol HCl] | – | – | – | 106% | -13.9% |
| CC(C)(C)NCC(O)c1cc(O)cc(O)c1 (stereo not shown) [Terbutaline Sulfate] | – | – | – | 101% | 39.1% |
| Nc1nc(CC(=O)Nc2ccc(CCNC[C@H](O)c3ccccc3)cc2)cs1 [Mirabegron] | – | – | – | 102% | -9.6% |
| CN(C)CCN(Cc1ccccc1)c1ccccn1 [Tripelennamine HCl] | – | – | -0.2% | 105% | – |
| C[C@@H]1C(=O)O[C@H]2C[C@@]34[C@H]5C[C@@H](C(C)(C)C)[C@]36[C@@H](OC(=O)[C@@H]6O)O[C@@]4(C(=O)O5)[C@]21O [Ginkgolide A] | – | – | 23.3% | 109% | – |
| C=CC[N+]1([C@H]2C[C@H]3[C@@H]4CC[C@H]5C[C@H](O)[C@@H](N6CCOCC6)C[C@]5(C)[C@H]4CC[C@]3(C)[C@H]2OC(C)=O)CCCC1 [Rocuronium Bromide] | – | – | 16.7% | 106% | – |
| CN(C)CC(c1ccc(O)cc1)C1(O)CCCCC1 (stereo not shown) [Desvenlafaxine Succinate] | – | – | 11% | 98.8% | – |
| N#Cc1ccccc1-c1cc(-c2ccccn2)cn(-c2ccccc2)c1=O [Perampanel] | – | – | -30.9% | 98.8% | – |
| NC[C@H](CC(=O)O)c1ccc(Cl)cc1 [(R)-baclofen] | – | – | 46.4% | 112% | – |
| CCC1(c2cnc[nH]2)Cc2ccccc2C1 [Atipamezole] | – | – | – | 118% | 38.2% |
| COc1cc2c(cc1OC)[C@@H]1Cc3ccc(OC)c(OC)c3CN1CC2 [Rotundine] | – | – | 17.4% | 112% | – |
| Clc1ccc2nsnc2c1NC1=NCCN1 [Tizanidine HCl] | – | – | – | 78.9% | -28.3% |
| COCCc1ccc(OCC(O)CNC(C)C)cc1 (stereo not shown) [Metoprolol Tartrate] | – | – | – | 106% | -24.2% |
| CCN(CC)CC#CCOC(=O)C(O)(c1ccccc1)C1CCCCC1 (stereo not shown) [Oxybutynin] | – | – | – | 104% | -3.6% |
| CC(C)COc1ccc(CNC(=O)N(Cc2ccc(F)cc2)C2CCN(C)CC2)cc1 [Pimavanserin] | – | – | 18.1% | 113% | – |
| COc1ccc2cccc(CCNC(C)=O)c2c1 [Agomelatine] | – | – | 18.4% | 89.1% | – |
| COc1cc2nc(N3CCN(C(=O)c4ccco4)CC3)nc(N)c2cc1OC [Prazosin HCl] | – | – | -45.6% | 76.9% | – |
| CC(C[N+](C)(C)C)OC(N)=O (stereo not shown) [Bethanechol chloride] | – | – | 2.2% | 103% | – |
| COc1ccccc1N1CCN(CC(O)COc2cccc3ccccc23)CC1 (stereo not shown) [Naftopidil] | – | – | – | 102% | 13.4% |
| CCC(COC(=O)c1cc(OC)c(OC)c(OC)c1)(c1ccccc1)N(C)C (stereo not shown) [Trimebutine] | – | – | – | 108% | 43.7% |
| CCCC(CCC)C(=O)O [Valproic acid sodium salt] | – | – | -18.5% | 113% | – |
| CNS(=O)(=O)CCc1ccc2[nH]cc(C3CCN(C)CC3)c2c1 [Naratriptan] | – | – | 5.8% | 102% | – |

| Molecule | NA Inhibition (%) ([1]; 20 µM) | Relative Viability (%) (U937 cells) | inhibition at 20 µM [1, 2] | viability at 20 µM (in vitro) | inhibition at 20 µM [1, 3] |
| --- | --- | --- | --- | --- | --- |
| Cc1c(-c2ccccc2)oc2c(C(=O)OCCN3CCCCC3)cccc2c1=O [Flavoxate HCl] | – | – | 8.2% | 118% | – |
| CCOc1cc(N)c(Cl)cc1C(=O)NCC1CN(Cc2ccc(F)cc2)CCO1 (stereo not shown) [Mosapride Citrate] | – | – | 32.4% | 112% | – |
| NC12CC3CC(CC(C3)C1)C2 [Amantadine HCl] | – | – | 69.2% | 110% | – |
| CCN1CCC[C@H]1CNC(=O)c1cc(S(N)(=O)=O)ccc1OC [Levosulpiride] | – | – | 2.8% | 104% | – |
| COc1cc2nc(N(C)CCCNC(=O)C3CCCO3)nc(N)c2cc1OC (stereo not shown) [Alfuzosin HCl] | – | – | – | 110% | -12.3% |
| O=C(O[C@H]1CN2CCC1CC2)N1CCc2ccccc2[C@@H]1c1ccccc1 [Solifenacin succinate] | – | – | 22.6% | 102% | – |
| CN(C)CCC(c1ccc(Cl)cc1)c1ccccn1 (stereo not shown) [Chlorpheniramine Maleate] | – | – | 1% | 102% | – |
| OC(CCCN1CCCCC1)(c1ccccc1)c1ccccc1 [Diphenidol HCl] | – | – | 32.3% | 125% | – |
| CN(C)CCCN1c2ccccc2Sc2ccc(Cl)cc21 [Chlorpromazine HCl] | – | – | 53.3% | 115% | – |
| CC(C)NCC(O)COc1ccc(CCOCC2CC2)cc1 (stereo not shown) [Betaxolol] | – | – | – | 115% | 6.7% |
| CCN(C)C(=O)Oc1cccc([C@H](C)N(C)C)c1 [Rivastigmine Tartrate] | – | – | -0.2% | 116% | – |
| OCCOCCN1CCN(C2=Nc3ccccc3Sc3ccccc32)CC1 [Quetiapine Fumarate] | – | – | – | 104% | -29.1% |
| Cc1cccc(Cc2c[nH]cn2)c1C [Detomidine HCl] | – | – | – | 109% | 31.2% |
| CCN(Cc1ccc(Cl)nc1)/C(=C/[N+](=O)[O-])NC [Nitenpyram] | – | – | -32.4% | 110% | – |
| CN[C@H](CC(=O)O)C(=O)O [NMDA (N-Methyl-D-aspartic acid), N-Methyl-D-aspartic acid] | – | – | – | 113% | -15.5% |
| CN1CCC(=C2c3ccccc3CCn3c(C=O)cnc32)CC1 [Alcaftadine] | – | – | -0.9% | 188% | – |
| Clc1cccc(Cl)c1N=C1NCCN1 [Clonidine HCl] | – | – | – | 99.2% | -24.1% |
| CN1[C@@H]2CC[C@H]1C[C@@H](OC(=O)c1c[nH]c3ccccc13)C2 [Tropisetron] | – | – | 55.4% | 80.9% | – |
| Cc1cccc([C@H](C)c2cnc[nH]2)c1C [Dexmedetomidine HCl (Precedex), Dexmedetomidine HCl] | -18.5% | – | – | 120% | – |
| Cc1cccc(C)c1NC(=O)CN1CCCC1=O [Nefiracetam] | – | – | 6% | 105% | – |
| COc1ccc(C(CN(C)C)C2(O)CCCCC2)cc1 (stereo not shown) [Venlafaxine] | – | – | -1.3% | 93.2% | – |

— paper PMC12069340 (Frontiers in Cellular and Infection Microbiology, 2025)
